Test systems include SW-620 colon; OVCAR-5 ovarian; M14 melanoma; OVCAR-8 ovarian; SK-MEL-28 melanoma; EKVX NSCLC; MALME-3M melanoma; CAKI-1 renal; RXF 393 renal; NCI-H23 lung.
What all share (assay): growth of human tumour cells (NCI), 48 h

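Briefly, cells in 96-well plates were exposed to five compound concentrations for 48 h, and endpoints were estimated by linear interpolation. GI50 marks 50% less growth. At the TGI there is no net growth.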 Where a SMILES comes first, the peptide text is derived from it. [ ]: non-standard residue; d: D form. The star is where a group is joined. ξ: configuration not given here. ξF = NC(Cc1ccccc1)C(=O)O; Cbz = O=C(OCc1ccccc1)*; Aib = CC(C)(N)C(=O)O

Turning to `COC(=O)C(C)(C)NC(=O)C(Cc1ccccc1)NC(=O)C(C)(C)NC(=O)OCc1ccccc1` (stereo not given) (Cbz-[Aib]-[ξF]-[Aib]-OMe), the TGI in the test with SW-620 colon, with OVCAR-5 ovarian, in the test with M14 melanoma, in the test with OVCAR-8 ovarian, in the test with SK-MEL-28 melanoma and with EKVX NSCLC was over 100 µM each time. Also, the TGI with MALME-3M melanoma and in the test with CAKI-1 renal was over 100 µM each time.

For the compound `CC(=O)ON1C(=O)c2cccc3cccc(c23)C1=O`, the TGI in the test with SW-620 colon was over 100 µM; in the test with OVCAR-5 ovarian it was over 100 µM; in the test on M14 melanoma, 90.9 µM; in the test with OVCAR-8 ovarian it was over 100 µM; in the test on SK-MEL-28 melanoma, 44.6 µM; in the test with RXF 393 renal, 25.5 µM. Also, the TGI in the test with EKVX NSCLC is over 100 µM; with MALME-3M melanoma, 45 µM; in the test on NCI-H23 lung, 50 µM; with CAKI-1 renal it was 49 µM.

As for `CC(C)(CCCCC(C)(C)C1NC(=O)N1)C1NC(=O)N1`, the TGI in the test on SW-620 colon, in the test on OVCAR-5 ovarian, with M14 melanoma, in the test with OVCAR-8 ovarian, in the test with SK-MEL-28 melanoma and with RXF 393 renal was over 10 µM throughout. Besides, the TGI with EKVX NSCLC, with MALME-3M melanoma, in the test on NCI-H23 lung and with CAKI-1 renal was over 10 µM throughout.

Consider `Nc1c(-c2ccccc2[N+](=O)[O-])nc2ccccn12`, for which the TGI in the test on SW-620 colon, with OVCAR-5 ovarian, with M14 melanoma, with OVCAR-8 ovarian, in the test with SK-MEL-28 melanoma and in the test on RXF 393 renal was over 100 µM throughout. For the same compound, the TGI in the test on EKVX NSCLC, with MALME-3M melanoma and with NCI-H23 lung was over 100 µM throughout.

`CCOC(=O)CCC(NC(=O)OCc1ccccc1)C(=O)NC(CCC(=O)OCC)C(=O)NNC(=O)OC(C)(C)C` (stereo not given): the TGI with OVCAR-5 ovarian, with M14 melanoma, in the test with OVCAR-8 ovarian, in the test on SK-MEL-28 melanoma, in the test on RXF 393 renal and in the test with MALME-3M melanoma was over 100 µM throughout. Also, the TGI with NCI-H23 lung and in the test with CAKI-1 renal was over 100 µM throughout.

In the case of `c1cncc(O[Si](Oc2cccnc2)(Oc2cccnc2)Oc2cccnc2)c1`, the TGI with SW-620 colon, in the test with OVCAR-5 ovarian, in the test with M14 melanoma, in the test on OVCAR-8 ovarian, in the test with SK-MEL-28 melanoma and with RXF 393 renal was over 100 µM throughout. Also, the TGI with EKVX NSCLC, with MALME-3M melanoma, with NCI-H23 lung and with CAKI-1 renal was over 100 µM throughout.

For `COc1cc(-c2n/c(=C\c3c(O)[nH]c4cc(Cl)ccc34)cc3c2=Nc2ccccc2-3)cc(OC)c1OC`, the GI50 in the test with SW-620 colon is 4.07 µM; with OVCAR-5 ovarian, 18.3 µM; in the test on M14 melanoma, 2.41 µM; with OVCAR-8 ovarian, 4.6 µM; with SK-MEL-28 melanoma, 4.05 µM; in the test with RXF 393 renal it was 2.37 µM. For the same compound, the GI50 with EKVX NSCLC was 4.99 µM; in the test with MALME-3M melanoma, 2.98 µM; in the test on NCI-H23 lung it was 3.57 µM; in the test with CAKI-1 renal, 10.9 µM. Further, the TGI is 54.9 µM in the test on SW-620 colon; over 100 µM in the test with OVCAR-5 ovarian; 5.66 µM with M14 melanoma; 29.2 µM with OVCAR-8 ovarian; 13.8 µM in the test on SK-MEL-28 melanoma; 7.34 µM in the test on RXF 393 renal. Further, the TGI in the test with EKVX NSCLC stood at 27.1 µM; in the test on MALME-3M melanoma, 9.41 µM; in the test with NCI-H23 lung, 23.2 µM; in the test with CAKI-1 renal, 60 µM.
